The source of these data is patent publication US8143263B2, “Therapeutic agents” (Astrazeneca AB, priority 2008, dated 2012).

As usually defined, the EC50 is the concentration giving half of the maximal effect.

SMILES strings stand for the structures.

The target in the test is T1, recombinant human pancreatic GLK (Homo sapiens, UniProt P35557).
T1 sequence (P35557 1-465): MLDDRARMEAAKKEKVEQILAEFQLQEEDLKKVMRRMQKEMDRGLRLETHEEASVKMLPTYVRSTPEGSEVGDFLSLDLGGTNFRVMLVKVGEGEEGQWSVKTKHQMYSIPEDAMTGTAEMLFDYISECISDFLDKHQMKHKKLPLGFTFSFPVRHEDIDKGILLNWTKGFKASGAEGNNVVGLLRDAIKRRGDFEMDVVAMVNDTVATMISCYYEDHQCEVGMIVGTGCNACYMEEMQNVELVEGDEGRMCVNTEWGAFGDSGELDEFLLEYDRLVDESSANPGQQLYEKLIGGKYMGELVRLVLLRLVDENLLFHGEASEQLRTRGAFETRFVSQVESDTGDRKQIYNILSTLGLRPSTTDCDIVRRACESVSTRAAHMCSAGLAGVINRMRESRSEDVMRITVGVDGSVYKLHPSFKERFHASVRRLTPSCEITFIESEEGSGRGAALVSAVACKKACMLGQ
In words: biochemical.
`COCC(Sc1ncnc2c1cnn2-c1ccccc1Cl)C(=O)Nc1ccc(C)cn1` (stereo not shown) [Example 62, 2-{[1-(2-Chlorophenyl)-1H-pyrazolo[3,4-d]pyrimidin-4-yl]thio}-3-methoxy-N-(5-methylpyridin-2-yl)propanamide]: the EC50 is 12000 nM. In the case of `CCCCCCC(Sc1ncnc2c1cnn2-c1ccccc1Cl)C(=O)Nc1nc(C)cs1` (stereo not shown) [Example 63, 2-{[1-(2-chlorophenyl)-1H-pyrazolo[3,4-d]pyrimidin-4-yl]thio}-N-(4-methyl-1,3-thiazol-2-yl)octanamide] it was over 4500 nM; in that of `CCCCCCC(Sc1ncnc2c1cnn2-c1ccccc1Cl)C(=O)Nc1ccon1` (stereo not shown) [Example 64, 2-{[1-(2-chlorophenyl)-1H-pyrazolo[3,4-d]pyrimidin-4-yl]thio}-N-isoxazol-3-yloctanamide], 10000 nM. `CCOC(Sc1ncnc2c1cnn2-c1ccccc1OC)C(=O)Nc1nc(C)cs1` (stereo not shown) [Example 71, 2-Ethoxy-2-{[1-(2-methoxyphenyl)-1H-pyrazolo[3,4-d]pyrimidin-4-yl]thio}-N-(4-methyl-1,3-thiazol-2-yl)acetamide]: the EC50 stood at 1600 nM. Take `CCOC(Sc1ncnc2c1cnn2-c1ccccc1OC)C(=O)Nc1ccon1` (stereo not shown) [Example 72, 2-Ethoxy-N-isoxazol-3-yl-2-{[1-(2-methoxyphenyl)-1H-pyrazolo[3,4-d]pyrimidin-4-yl]thio}acetamide]: the EC50 is 2900 nM. In the case of `COCCC(Oc1ncnc2c1cnn2C(C)C)C(=O)Nc1ccc(C)cn1` (stereo not shown) [Example 76, 2-[(1-isopropyl-1H-pyrazolo[3,4-d]pyrimidin-4-yl)oxy]-4-methoxy-N-(5-methylpyridin-2-yl)butanamide] it was at least 100000 nM. In the case of `Cc1ccc(NC(=O)C(Oc2ncnc3c2cnn3-c2ccccc2Cl)C(C)C)nc1` (stereo not shown) [Example 83, 2-(1-(2-chlorophenyl)-1H-pyrazolo[3,4-d]pyrimidin-4-yloxy)-3-methyl-N-(5-methylpyridin-2-yl)butanamide] it was 870 nM. In the case of `Cc1ccc(NC(=O)[C@@H](Oc2ncnc3c2cnn3-c2ccccc2Cl)C(C)C)nc1` [Example 84, (2S)-2-(1-(2-chlorophenyl)-1H-pyrazolo[3,4-d]pyrimidin-4-yloxy)-3-methyl-N-(5-methylpyridin-2-yl)butanamide] it was 470 nM; in that of `Cc1ccc(NC(=O)[C@H](Oc2ncnc3c2cnn3-c2ccccc2Cl)C(C)C)nc1` [Example 85, (2R)-2-(1-(2-chlorophenyl)-1H-pyrazolo[3,4-d]pyrimidin-4-yloxy)-3-methyl-N-(5-methylpyridin-2-yl)butanamide], 9500 nM; in that of `Cc1ccc(NC(=O)[C@@H](Oc2ncnc3c2cnn3-c2ncccc2Cl)C(C)C)nc1` [Example 86, (2S)-2-(1-(3-chloropyridin-2-yl)-1H-pyrazolo[3,4-d]pyrimidin-4-yloxy)-3-methyl-N-(5-methylpyridin-2-yl)butanamide], 1500 nM. Regarding `COC[C@H](Oc1ncnc2c1cnn2-c1ccccc1Cl)C(=O)Nc1ccc(C)cn1` [Example 87, (2S)-2-(1-(2-chlorophenyl)-1H-pyrazolo[3,4-d]pyrimidin-4-yloxy)-3-methoxy-N-(5-methylpyridin-2-yl)propanamide], the EC50 turned out to be 320 nM.

Regarding `COC[C@@H](Oc1ncnc2c1cnn2-c1ccccc1Cl)C(=O)Nc1ccc(C)cn1` [Example 88, (2R)-2-(1-(2-chlorophenyl)-1H-pyrazolo[3,4-d]pyrimidin-4-yloxy)-3-methoxy-N-(5-methylpyridin-2-yl)propanamide], the EC50 turned out to be 5100 nM. Consider `COC[C@H](Oc1ncnc2c1cnn2-c1ncccc1Cl)C(=O)Nc1ccc(C)cn1` [Example 89, (2S)-2-(1-(3-chloropyridin-2-yl)-1H-pyrazolo[3,4-d]pyrimidin-4-yloxy)-3-methoxy-N-(5-methylpyridin-2-yl)propanamide], for which the EC50 was found to be 1500 nM. As for `COC[C@H](Oc1ncnc2c1cnn2-c1ncccc1Cl)C(=O)Nc1cnc(C)cn1` [Example 90, (2S)-2-(1-(3-chloropyridin-2-yl)-1H-pyrazolo[3,4-d]pyrimidin-4-yloxy)-3-methoxy-N-(5-methylpyrazin-2-yl)propanamide], the EC50 was 5400 nM.

`Cc1ccc(NC(=O)[C@H](COC(C)C)Oc2ncnc3c2cnn3-c2ncccc2Cl)nc1` [Example 91, (2S)-2-(1-(3-chloropyridin-2-yl)-1H-pyrazolo[3,4-d]pyrimidin-4-yloxy)-3-isopropoxy-N-(5-methylpyridin-2-yl)propanamide]: the EC50 was 160 nM. Consider `Cc1cnc(NC(=O)[C@H](COC(C)C)Oc2ncnc3c2cnn3-c2ncccc2Cl)cn1` [Example 92, (2S)-2-(1-(3-chloropyridin-2-yl)-1H-pyrazolo[3,4-d]pyrimidin-4-yloxy)-3-isopropoxy-N-(5-methylpyrazin-2-yl)propanamide], for which the EC50 turned out to be 420 nM. Under `Cc1nsc(NC(=O)[C@H](COC(C)C)Oc2ncnc3c2cnn3-c2ncccc2Cl)n1` [Example 93, (2S)-2-(1-(3-chloropyridin-2-yl)-1H-pyrazolo[3,4-d]pyrimidin-4-yloxy)-3-isopropoxy-N-(3-methyl-1,2,4-thiadiazol-5-yl)propanamide] stands 3300 nM; under `Cc1cnc(NC(=O)[C@@H](Oc2ncnc3c2cnn3-c2ncccc2Cl)C(C)C)cn1` [Example 94, (2S)-2-(1-(3-chloropyridin-2-yl)-1H-pyrazolo[3,4-d]pyrimidin-4-yloxy)-3-methyl-N-(5-methylpyrazin-2-yl)butanamide], 9200 nM; under `COC[C@H](Oc1ncnc2c1cnn2-c1ccc(F)cc1Cl)C(=O)Nc1cnc(C)cn1` [Example 95, (2S)-2-(1-(2-chloro-4-fluorophenyl)-1H-pyrazolo[3,4-d]pyrimidin-4-yloxy)-3-methoxy-N-(5-methylpyrazin-2-yl)propanamide], 39000 nM. In the case of `COC[C@H](Oc1ncnc2c1cnn2-c1ccc(F)cc1Cl)C(=O)Nc1ccc(C)cn1` [Example 96, (2S)-2-(1-(2-chloro-4-fluorophenyl)-1H-pyrazolo[3,4-d]pyrimidin-4-yloxy)-3-methoxy-N-(5-methylpyridin-2-yl)propanamide], the EC50 is 1300 nM. Regarding `COC[C@H](Oc1ncnc2c1cnn2-c1ccccc1C#N)C(=O)Nc1ccc(C)cn1` [Example 97, (2S)-2-(1-(2-cyanophenyl)-1H-pyrazolo[3,4-d]pyrimidin-4-yloxy)-3-methoxy-N-(5-methylpyridin-2-yl)propanamide], the EC50 is 1200 nM.

In the case of `Cc1ccc(NC(=O)[C@H](COC(C)C)Oc2ncnc3c2cnn3-c2ccccc2C#N)nc1` [Example 97a, (2S)-2-[1-(2-cyanophenyl)pyrazolo[4,5-e]pyrimidin-4-yl]oxy-N-(5-methylpyridin-2-yl)-3-propan-2-yloxypropanamide], the EC50 amounted to 460 nM. In the case of `Cc1ccc(NC(=O)[C@H](COC(C)C)Oc2ncnc3c2cnn3-c2ccccc2Cl)nc1` [Example 98, (2S)-2-(1-(2-chlorophenyl)-1H-pyrazolo[3,4-d]pyrimidin-4-yloxy)-3-isopropoxy-N-(5-methylpyridin-2-yl)propanamide] it was 110 nM; in that of `Cc1ccc(NC(=O)[C@@H](COC(C)C)Oc2ncnc3c2cnn3-c2ccccc2Cl)nc1` [Example 99, (2R)-2-(1-(2-chlorophenyl)-1H-pyrazolo[3,4-d]pyrimidin-4-yloxy)-3-isopropoxy-N-(5-methylpyridin-2-yl)propanamide], 9300 nM; in that of `Cc1nsc(NC(=O)[C@H](COC(C)C)Oc2ncnc3c2cnn3-c2ccccc2Cl)n1` [Example 100, (2S)-2-[1-(2-Chlorophenyl)pyrazolo[4,5-e]pyrimidin-4-yl]oxy-N-(3-methyl-1,2,4-thiadiazol-5-yl)-3-propan-2-yloxypropanamide], 1000 nM. In the case of `COC[C@H](Oc1ncnc2c1cnn2-c1ccccc1Cl)C(=O)Nc1nc(C)ns1` [Example 101, (2S)-2-(1-(2-Chlorophenyl)-1H-pyrazolo[3,4-d]pyrimidin-4-yloxy)-3-methoxy-N-(3-methyl-1,2,4-thiadiazol-5-yl)propanamide] it was 5000 nM. Under `COCC[C@H](Oc1ncnc2c1cnn2-c1ncccc1Cl)C(=O)Nc1ccc(C)cn1` [Example 102, (2S)-2-(1-(3-Chloropyridin-2-yl)-1H-pyrazolo[3,4-d]pyrimidin-4-yloxy)-4-methoxy-N-(5-methylpyridin-2-yl)butanamide] stands 130 nM; under `CCOC[C@H](Oc1ncnc2c1cnn2-c1ncccc1Cl)C(=O)Nc1ccc(C)cn1` [Example 103, (2S)-2-[1-(3-Chloropyridin-2-yl)pyrazolo[4,5-e]pyrimidin-4-yl]oxy-3-ethoxy-N-(5-methylpyridin-2-yl)propanamide], 280 nM; under `CCOC[C@H](Oc1ncnc2c1cnn2-c1ncccc1Cl)C(=O)Nc1cnc(C)cn1` [Example 104, (2S)-2-[1-(3-Chloropyridin-2-yl)pyrazolo[4,5-e]pyrimidin-4-yl]oxy-3-ethoxy-N-(5-methylpyrazin-2-yl)propanamide], 1200 nM. For `CCOC[C@H](Oc1ncnc2c1cnn2-c1ccccc1Cl)C(=O)Nc1cnc(C)cn1` [Example 105, (2S)-2-[1-(2-chlorophenyl)pyrazolo[4,5-e]pyrimidin-4-yl]oxy-3-ethoxy-N-(5-methylpyrazin-2-yl)propanamide], the EC50 is 510 nM.

Take `Cc1cnc(NC(=O)[C@H](COC(C)C)Oc2ncnc3c2cnn3-c2nccnc2C)cn1` [Example 106, (2S)-3-Isopropoxy-N-(5-methylpyrazin-2-yl)-2-(1-(3-methylpyrazin-2-yl)-1H-pyrazolo[3,4-d]pyrimidin-4-yloxy)propanamide]: the EC50 was found to be 6900 nM.
